Legend:
AZD2811 = compound: CCN(CCO)CCCOc1ccc2c(Nc3cc(CC(=O)Nc4cccc(F)c4)[nH]n3)ncnc2c1 [AZD2811]; settings: max 1 µM
In short: (§1)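 Cancer cell lines were seeded in 1536-well plates in 7.5 μl DMEM/F12 or RPMI with 10% FBS, held 24 hours at 37°C and 5% CO2, then dosed for 72 hours (final DMSO typically 0.2%). Viability was read by CellTiter-Glo 2.0 luminescence and scaled between blank-well and DMSO-well means. The single-agent IC50 comes from dose responses fitted to a two-parameter logistic curve with a non-linear mixed effects model.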

Crizotinib = compound: C[C@@H](Oc1cc(-c2cnn(C3CCNCC3)c2)cnc1N)c1c(Cl)ccc(F)c1Cl [Crizotinib]; settings: max 10 µM
In short: as §1

AZD4320 = compound: CN(CC[C@H](CSC1=CC=CC=C1)NC2=C(C=C(C=C2)S(=O)(=O)NC(=O)C3=CC=C(C=C3)N4CCC(CC4)[C@H](C5=CC=CC=C5C6=CC=C(C=C6)Cl)O)S(=O)(=O)C(F)(F)F)CCO [AZD4320]; settings: max 1 µM
In short: as §1

[1] = compound: O=C(Nc1ccc2[nH]nc(-c3ccncc3)c2c1)[C@@H]1CCN(CC(=O)N2CCN(c3ccc(-c4ncccn4)cc3)CC2)C1; settings: max 5 µM
In short: as §1

AZD6738 = compound: C[C@@H]1COCCN1C2=NC(=NC(=C2)C3(CC3)[S@](=N)(=O)C)C4=C5C=CNC5=NC=C4 [AZD6738]; settings: max 10 µM
In short: as §1

SN-38 = compound: CCc1c2c(nc3ccc(O)cc13)-c1cc3c(c(=O)n1C2)COC(=O)[C@]3(O)CC [SN-38]; settings: max 0.3 µM
In short: as §1

AZD0156 = compound: CN(C)CCCOc1ccc(-c2ccc3ncc4c(c3c2)n(C2CCOCC2)c(=O)n4C)cn1 [AZD0156]; settings: max 3 µM
In short: as §1

Prexasertib = compound: COc1cccc(OCCCN)c1-c1cc(Nc2cnc(C#N)cn2)n[nH]1 [Prexasertib]; settings: max 1 µM
In short: as §1

Venetoclax = compound: CC1(C)CCC(CN2CCN(c3ccc(C(=O)NS(=O)(=O)c4ccc(NCC5CCOCC5)c([N+](=O)[O-])c4)c(Oc4cnc5[nH]ccc5c4)c3)CC2)=C(c2ccc(Cl)cc2)C1 [Venetoclax]; settings: max 1 µM
In short: as §1

Savolitinib = compound: C[C@@H](c1ccc2nccn2c1)n1nnc2ncc(-c3cnn(C)c3)nc21 [Savolitinib]; settings: max 1 µM
In short: as §1

MK-2206 = compound: NC1(c2ccc(-c3nc4ccn5c(=O)[nH]nc5c4cc3-c3ccccc3)cc2)CCC1 [MK-2206]; settings: max 10 µM
In short: as §1

Paclitaxel = compound: CC(=O)O[C@H]1C(=O)[C@@]2(C)[C@H]([C@H](OC(=O)c3ccccc3)[C@]3(O)C[C@H](OC(=O)[C@H](O)[C@@H](NC(=O)c4ccccc4)c4ccccc4)C(C)=C1C3(C)C)[C@]1(OC(C)=O)CO[C@@H]1C[C@@H]2O [Paclitaxel]; settings: max 3 µM
In short: as §1

Palbociclib = compound: CC(=O)c1c(C)c2cnc(Nc3ccc(N4CCNCC4)cn3)nc2n(C2CCCC2)c1=O [Palbociclib]; settings: max 10 µM
In short: as §1

AZD5991 = compound: Cc1c2c(nn1C)CSCc1cc(n(C)n1)CSc1cc(c3ccccc3c1)OCCCc1c(C(=O)O)n(C)c3c-2c(Cl)ccc13 [AZD5991]; settings: max 1 µM
In short: as §1

5-Fluorouracil = compound: O=c1[nH]cc(F)c(=O)[nH]1 [5-Fluorouracil]; settings: max 20 µM
In short: as §1

Dasatinib = compound: CC1=C(C(=CC=C1)Cl)NC(=O)C2=CN=C(S2)NC3=CC(=NC(=N3)C)N4CCN(CC4)CCO [Dasatinib]; settings: max 2 µM
In short: as §1

Taselisib = compound: Cc1nc(-c2cn3c(n2)-c2ccc(-c4cnn(C(C)(C)C(N)=O)c4)cc2OCC3)n(C(C)C)n1 [Taselisib]; settings: max 10 µM
In short: as §1

AZD5363 = compound: C1CN(CCC1(C(=O)N[C@@H](CCO)C2=CC=C(C=C2)Cl)N)C3=NC=NC4=C3C=CN4 [AZD5363]; settings: max 10 µM
In short: as §1

Olaparib = compound: O=C(c1cc(Cc2n[nH]c(=O)c3ccccc23)ccc1F)N1CCN(C(=O)C2CC2)CC1 [Olaparib]; settings: max 10 µM
In short: as §1

Lapatinib = compound: CS(=O)(=O)CCNCc1ccc(-c2ccc3ncnc(Nc4ccc(OCc5cccc(F)c5)c(Cl)c4)c3c2)o1 [Lapatinib]; settings: max 10 µM
In short: as §1

Selumetinib = compound: Cn1cnc2c(F)c(Nc3ccc(Br)cc3Cl)c(C(=O)NOCCO)cc21 [Selumetinib]; settings: max 10 µM
In short: as §1

AZD1775 = compound: C=CCn1c(=O)c2cnc(Nc3ccc(N4CCN(C)CC4)cc3)nc2n1-c1cccc(C(C)(C)O)n1 [AZD1775]; settings: max 3 µM
In short: as §1

AZD8186 = compound: C[C@@H](Nc1cc(F)cc(F)c1)c1cc(C(=O)N(C)C)cc2c(=O)cc(N3CCOCC3)oc12 [AZD8186]; settings: max 10 µM
In short: as §1

AZD5153 = compound: COc1nnc2ccc(N3CCC(c4ccc(OCCN5CCN(C)C(=O)[C@H]5C)cc4)CC3)nn12 [AZD5153]; settings: max 1 µM
In short: as §1

AZD7648 = compound: Cc1cc2ncnn2cc1Nc1ncc2c(n1)n(C1CCOCC1)c(=O)n2C [AZD7648]; settings: max 10 µM
In short: as §1

SG3199 = compound: CC1=CN2[C@@H](C1)C=NC3=CC(=C(C=C3C2=O)OC)OCCCCCOC4=C(C=C5C(=C4)N=C[C@@H]6CC(=CN6C5=O)C)OC [SG3199]; settings: max 0.001 µM
In short: as §1

Alisertib = compound: COc1cc(Nc2ncc3c(n2)-c2ccc(Cl)cc2C(c2c(F)cccc2OC)=NC3)ccc1C(=O)O [Alisertib]; settings: max 10 µM
In short: as §1

Gemcitabine = compound: Nc1ccn([C@@H]2O[C@H](CO)[C@@H](O)C2(F)F)c(=O)n1 [Gemcitabine]; settings: max 0.3 µM
In short: as §1

Carboplatin = compound: C1CC(C1)(C(=O)[O-])C(=O)[O-].N.N.[Pt+2] [Carboplatin]; settings: max 10 µM
In short: as §1

AZD1390 = compound: CC(C)n1c(=O)n(C)c2cnc3cc(F)c(-c4ccc(OCCCN5CCCCC5)nc4)cc3c21 [AZD1390]; settings: max 0.3 µM
In short: as §1

Etoposide = compound: COc1cc([C@@H]2c3cc4c(cc3[C@@H](O[C@@H]3O[C@@H]5CO[C@@H](C)O[C@H]5[C@H](O)[C@H]3O)[C@H]3COC(=O)[C@H]23)OCO4)cc(OC)c1O [Etoposide]; settings: max 10 µM
In short: as §1

Trametinib = compound: CC(=O)Nc1cccc(-n2c(=O)n(C3CC3)c(=O)c3c(Nc4ccc(I)cc4F)n(C)c(=O)c(C)c32)c1 [Trametinib]; settings: max 1 µM
In short: as §1

SRA737 = compound: N#Cc1cnc(Nc2cc(NC[C@H]3CNCCO3)c(C(F)(F)F)cn2)cn1 [SRA737]; settings: max 10 µM
In short: as §1

Doxorubicin = compound: COc1cccc2c1C(=O)c1c(O)c3c(c(O)c1C2=O)C[C@@](O)(C(=O)CO)C[C@@H]3O[C@H]1C[C@H](N)[C@H](O)[C@H](C)O1 [Doxorubicin]; settings: max 1 µM
In short: as §1

Gefitinib = compound: COc1cc2ncnc(Nc3ccc(F)c(Cl)c3)c2cc1OCCCN1CCOCC1 [Gefitinib]; settings: max 10 µM
In short: as §1

Cell Line | IC50, cell viability 72 h (AZD2811) [nM] | IC50, cell viability 72 h (Crizotinib) [nM] | IC50, cell viability 72 h (AZD4320) [nM] | IC50, cell viability 72 h [1] [nM] | IC50, cell viability 72 h (AZD6738) [nM] | IC50, cell viability 72 h (SN-38) [nM] | IC50, cell viability 72 h (AZD0156) [nM] | IC50, cell viability 72 h (Prexasertib) [nM] | IC50, cell viability 72 h (Venetoclax) [nM] | IC50, cell viability 72 h (Savolitinib) [nM] | IC50, cell viability 72 h (MK-2206) [nM] | IC50, cell viability 72 h (Paclitaxel) [nM] | IC50, cell viability 72 h (Palbociclib) [nM] | IC50, cell viability 72 h (AZD5991) [nM] | IC50, cell viability 72 h (5-Fluorouracil) [nM] | IC50, cell viability 72 h (Dasatinib) [nM] | IC50, cell viability 72 h (Taselisib) [nM] | IC50, cell viability 72 h (AZD5363) [nM] | IC50, cell viability 72 h (Olaparib) [nM] | IC50, cell viability 72 h (Lapatinib) [nM] | IC50, cell viability 72 h (Selumetinib) [nM] | IC50, cell viability 72 h (AZD1775) [nM] | IC50, cell viability 72 h (AZD8186) [nM] | IC50, cell viability 72 h (AZD5153) [nM] | IC50, cell viability 72 h (AZD7648) [nM] | IC50, cell viability 72 h (SG3199) [nM] | IC50, cell viability 72 h (Alisertib) [nM] | IC50, cell viability 72 h (Gemcitabine) [nM] | IC50, cell viability 72 h (Carboplatin) [nM] | IC50, cell viability 72 h (AZD1390) [nM] | IC50, cell viability 72 h (Etoposide) [nM] | IC50, cell viability 72 h (Trametinib) [nM] | IC50, cell viability 72 h (SRA737) [nM] | IC50, cell viability 72 h (Doxorubicin) [nM] | IC50, cell viability 72 h (Gefitinib) [nM]
OCUB-M (Breast Carcinoma) | 73.4 | > 10000 | 878 | > 5000 | > 10000 | 49.2 | > 3000 | 463 | > 1000 | > 1000 | 1220 | 9.26 | > 10000 | 104 | > 20000 | > 2000 | 109 | 429 | > 10000 | 4790 | > 10000 | > 3000 | > 10000 | > 1000 | > 10000 | > 1 | 2810 | 91.1 | > 10000 | > 300 | 634 | > 1000 | > 10000 | 241 | > 10000
OCUM-1 (Gastric Carcinoma) | > 1000 | > 10000 | 571 | 35.9 | 2950 | 48.6 | > 3000 | 78.1 | > 1000 | > 1000 | > 10000 | 2620 | > 10000 | > 1000 | > 20000 | > 2000 | > 10000 | 8900 | > 10000 | > 10000 | 63 | 1510 | > 10000 | 645 | > 10000 | > 1 | > 10000 | 110 | > 10000 | > 300 | > 10000 | 1.85 | > 10000 | > 1000 | > 10000
SCC-9 (Oral Cavity Carcinoma) | > 1000 | > 10000 | > 1000 | > 5000 | > 10000 | > 300 | > 3000 | > 1000 | > 1000 | > 1000 | > 10000 | 284 | > 10000 | > 1000 | > 20000 | 1150 | 2140 | > 10000 | > 10000 | 5060 | > 10000 | 2830 | > 10000 | > 1000 | > 10000 | > 1 | > 10000 | > 300 | > 10000 | > 300 | > 10000 | > 1000 | > 10000 | > 1000 | > 10000
SNU-C1 (Colorectal Carcinoma) | > 1000 | > 10000 | > 1000 | 802 | > 10000 | > 300 | > 3000 | 73.5 | > 1000 | > 1000 | 9530 | > 3000 | > 10000 | > 1000 | > 20000 | > 2000 | 3360 | > 10000 | > 10000 | > 10000 | 1260 | > 3000 | > 10000 | > 1000 | > 10000 | > 1 | > 10000 | > 300 | > 10000 | > 300 | > 10000 | 75.1 | > 10000 | > 1000 | > 10000
TGBC11TKB (Gastric Carcinoma) | > 1000 | > 10000 | > 1000 | > 5000 | 2020 | 159 | > 3000 | 11.2 | > 1000 | > 1000 | > 10000 | 20.4 | > 10000 | > 1000 | > 20000 | > 2000 | > 10000 | > 10000 | > 10000 | > 10000 | 8400 | 287 | > 10000 | > 1000 | > 10000 | > 1 | > 10000 | 45.4 | > 10000 | > 300 | > 10000 | 522 | 1710 | > 1000 | > 10000
VMRC-LCD (Lung Adenocarcinoma) | 745 | 5710 | > 1000 | > 5000 | > 10000 | > 300 | > 3000 | 115 | > 1000 | > 1000 | > 10000 | 19 | > 10000 | > 1000 | > 20000 | > 2000 | > 10000 | > 10000 | > 10000 | > 10000 | > 10000 | > 3000 | > 10000 | 802 | > 10000 | > 1 | 668 | > 300 | > 10000 | > 300 | > 10000 | > 1000 | > 10000 | > 1000 | > 10000

Reference: the supplement of paper PMC11061612
